SMILES strings stand for the structures.

One experiment has as its system HT-1080 (ATCC, CCL-121) cells. Briefly: HT-1080 cell viability assay with ferroptosis inducer RSL3 (Cell Titer-Glo). Type of experiment: cell-based. The note with it: Homo sapiens; HT-1080 cells treated with RSL3; 3-fold, 10-point dilution, 1.1 μM highest concentration; Table 2; read-out: EC50 (nM), ferroptosis inhibitory activity. In a few lines:
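EC50 was derived by sigmoidal dose-response regression of CellTiter-Glo luminescence viability, expressed relative to untreated wells. Compounds were tested in a ten-point, threefold dilution series (highest 1.1 μM) in the presence of the ferroptosis inducer RSL3. HT-1080 cells had been seeded at 6000 per well and grown overnight first.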
Background: Cellular ATP, detected with luciferase, serves as a proxy for viable cell number.
Consider `CC1CCN(c2ccc(Nc3ccc4c(c3)N(C)CC(=O)N4C)cc2)CC1` [Compound 102, 1,4-dimethyl-6-((4-(4-methylpiperidin-1-yl)phenyl)amino)-3,4-dihydroquinoxalin-2(1H)-one], for which the EC50 – broadly, the concentration needed to bring the measured effect to its halfway point – was 0.1 to 100 nM.

With `Cn1c(=O)oc2cc(Nc3ccc(N4CC(C)(C)C4)cc3)ccc21` [Compound 324, 6-((4-(3,3-dimethylazetidin-1-yl)phenyl)amino)-3-methylbenzo[d]oxazol-2(3H)-one], the 50% effective concentration (EC50) lay in the range of 0.1 to 100 nM.

As to `CN(C)CCN1C(=O)COc2cc(Nc3ccc(N4CCC(C(F)(F)F)CC4)cc3)ccc21` [Compound 94, 4-(2-(dimethylamino)ethyl)-7-((4-(4-(trifluoromethyl)piperidin-1-yl)phenyl)amino)-2H-benzo[b][1,4]oxazin-3(4H)-one], the concentration for a half-maximal effect (EC50) lay within 0.1 to 100 nM.

For the molecule `Cn1c(=O)oc2cc(Nc3ccc(N4CC5(CCC5)C4)cc3)ccc21` [Compound 327, 6-((4-(2-azaspiro[3.3]heptan-2-yl)phenyl)amino)-3-methylbenzo[d]oxazol-2(3H)-one], the concentration for a half-maximal effect (EC50) lay in the range of 0.1 to 100 nM.

Regarding `CC1CCN(c2c(F)cc(Nc3ccc4c(c3)CN(C)C4=O)cc2F)CC1` [Compound 192, 5-((3,5-difluoro-4-(4-methylpiperidin-1-yl)phenyl)amino)-2-methylisoindolin-1-one], the EC50 fell in the range of 0.1 to 100 nM.

On to `CN1CC(=O)N(C)c2ccc(Nc3ccc(N4CCC(C(F)(F)F)CC4)cc3)cc21` [Compound 109, 1,4-dimethyl-6-((4-(4-(trifluoromethyl)piperidin-1-yl)phenyl)amino)-3,4-dihydroquinoxalin-2(H)-one], for which the concentration giving a half-maximal response (EC50) lay in the range of 0.1 to 100 nM.

Turning to `CC1CCN(c2ccc(Nc3ccc4c(c3)CN(C3CCN(C)CC3)C4=O)cc2)CC1` [Compound 249, 5-((4-(4-methylpiperidin-1-yl)phenyl)amino)-2-(1-methylpiperidin-4-yl) isoindolin-1-one], the concentration giving a half-maximal response (EC50) fell in the range of 0.1 to 100 nM.

As for `CN(C)c1cn(C)c2cccc(Nc3ccc(N4CCC(C(F)(F)F)CC4)cc3)c12` [Compound 399, N3,N3,1-trimethyl-N4-(4-(4-(trifluoromethyl)piperidin-1-yl)phenyl)-1H-indole-3,4-diamine], the EC50 lay within 0.1 to 100 nM.

Turning to `Cn1[nH]c2cc(Nc3ccc(N4CCC(C(F)(F)F)CC4)c(F)c3)ccc2c1=O` [Compound 219, 6-((3-fluoro-4-(4-(trifluoromethyl)piperidin-1-yl)phenyl)amino)-2-methyl-1,2-dihydro-3H-indazol-3-one], the EC50 was in the range of 0.1 to 100 nM.

On to `CN1C(=O)COc2cc(Nc3ccc(N4CC5CC(C4)O5)c(F)c3)ccc21` [Compound 99, 7-((4-(6-oxa-3-azabicyclo[3.1.1]heptan-3-yl)-3-fluorophenyl)amino)-4-methyl-2H-benzo[b][1,4]oxazin-3(4H)-one], for which the EC50 lay within 0.1 to 100 nM.

For the molecule `COC1(C(F)(F)F)CCN(c2ccc(Nc3ccc4c(c3)OCC(=O)N4)cc2)CC1` [Compound 162, 7-((4-(4-methoxy-4-(trifluoromethyl)piperidin-1-yl)phenyl)amino)-2H-benzo[b][1,4]oxazin-3(4H)-one], the EC50 fell in the range of 0.1 to 100 nM.

`CC1(C)CCC(c2ccc(Nc3ccc4nc(N)sc4c3)cc2)CC1` [Compound 409, N^6-(4-(4,4-dimethylcyclohexyl)phenyl)benzo[d]thiazole-2,6-diamine]: the EC50 lay within 0.1 to 100 nM.

In the case of `CN1C(=O)COc2cc(Nc3cc(F)c(N4CCC(C(F)(F)F)CC4)c(F)c3)ccc21` [Compound 57, 7-((3,5-difluoro-4-(4-(trifluoromethyl)piperidin-1-yl)phenyl)amino)-4-methyl-2H-benzo[b][1,4]oxazin-3(4H)-one], the concentration giving a half-maximal response (EC50) fell in the range of 0.1 to 100 nM.

With `Cn1c(=O)oc2cc(Nc3ccc(N4CCC(O)(C(F)(F)F)CC4)cc3)ccc21` [Compound 333, 6-((4-(4-hydroxy-4-(trifluoromethyl)piperidin-1-yl)phenyl)amino)-3-methylbenzo[d]oxazol-2(3H)-one], the EC50 was 0.1 to 100 nM.

`CC1CCN(c2ccc(Nc3ccc4c(c3)n(C)c(=N)n4C)cc2)CC1` [Compound 345, 2-imino-1,3-dimethyl-N-(4-(4-methylpiperidin-1-yl)phenyl)-2,3-dihydro-1H-benzo[d]imidazol-5-amine]: the EC50 was in the range of 0.1 to 100 nM.

In the case of `CCCCOc1ccc(Nc2ccc3c(c2)OCC(=O)N3C)cn1` [Compound 12, 7-((6-butoxypyridin-3-yl)amino)-4-methyl-2H-benzo[b][1,4]oxazin-3(4H)-one], the half-maximal effective concentration (EC50) fell in the range of 0.1 to 100 nM.

For `CC1CN(c2ccc(Nc3ccc4c(c3)nnn4C)cc2)CC(C)O1` (centres unmarked) [Compound 207, N-(4-(2,6-dimethylmorpholino)phenyl)-1-methyl-1H-benzo[d][1,2,3]triazol-5-amine], the concentration giving a half-maximal response (EC50) was 0.1 to 100 nM.

On to `Cn1c(=O)c2ccc(Nc3ccc(N4CCC(C(F)(F)F)CC4)cc3)cc2n1C(=O)OC(C)(C)C` [Compound 188, tert-butyl 2-methyl-3-oxo-6-((4-(4-(trifluoromethyl)piperidin-1-yl)phenyl)amino)-2,3-dihydro-1H-indazole-1-carboxylate], for which the EC50 was in the range of 100 to 1000 nM.

On to `Cn1c(=O)oc2ccc(Nc3ccc(N4CCC(C(F)(F)F)CC4)cc3)cc21` [Compound 349, 3-methyl-5-((4-(4-(trifluoromethyl)piperidin-1-yl)phenyl)amino)benzo[d]oxazol-2(3)-one], for which the EC50 was in the range of 0.1 to 100 nM.

For the molecule `CC1CCN(c2ccc(Nc3ccc4ncn(C)c4c3)cc2)CC1` [Compound 270, 1-methyl-N-(4-(4-methylpiperidin-1-yl)phenyl)-1H-benzo[d]imidazol-6-amine], the EC50 fell in the range of 0.1 to 100 nM.

Consider `Cc1cc(N2CCC(C)CC2)ccc1Nc1ccc2c(c1)n(C)c(=O)n2C` [Compound 280, 1,3-dimethyl-5-((2-methyl-4-(4-methylpiperidin-1-yl)phenyl)amino)-1,3-dihydro-2H-benzo[d]imidazol-2-one], for which the EC50 was 0.1 to 100 nM.

In the case of `CC1CN(c2ccc(Nc3ccc4c(c3)n(C)c(=O)n4C)cc2)CC(C)O1` (centres unmarked) [Compound 279, 5-((4-(2,6-dimethylmorpholino)phenyl)amino)-1,3-dimethyl-1,3-dihydro-2H-benzo[d]imidazol-2-one], the EC50 was in the range of 0.1 to 100 nM.

For the molecule `CC1CN(c2ccc(Nc3cc(F)c4c(c3)OCC(=O)N4C)cc2)CC(C)O1` (centres unmarked) [Compound 87, 7-((4-(2,6-dimethylmorpholino)phenyl)amino)-5-fluoro-4-methyl-2H-benzo[b][1,4]oxazin-3(4H)-one], the EC50 was in the range of 0.1 to 100 nM.

As for `CN1Cc2cc(Nc3ccc(Oc4ccc(Cl)cc4)cc3)ccc2C1=O` [Compound 232, 5-((4-(4-chlorophenoxy)phenyl)amino)-2-methylisoindolin-1-one], the concentration giving a half-maximal response (EC50) fell in the range of 0.1 to 100 nM.

For the molecule `CNCCCN1C(=O)COc2cc(Nc3ccc(N4CC(C)OC(C)C4)c(C)c3)ccc21` (centres unmarked) [Compound 56, 7-((4-(2,6-dimethylmorpholino)-3-methylphenyl)amino)-4-(3-(methylamino)propyl)-2H-benzo[b][1,4]oxazin-3(4H)-one], the EC50 was 0.1 to 100 nM.

For the molecule `Cn1c(=O)n(C)c2cc(Nc3ccc(N4CCC(C(F)(F)F)CC4)cc3)ccc21` [Compound 220, 1,3-dimethyl-5-((4-(4-(trifluoromethyl)piperidin-1-yl)phenyl)amino)-1,3-dihydro-2H-benzo[d]imidazol-2-one], the EC50 was 0.1 to 100 nM.

Still in this experiment, the particulars now being: Homo sapiens; HT-1080 cells treated with RSL3; 3-fold, 10-point dilution, 1.1 μM highest concentration; Table 3; read-out: EC50 (nM), ferroptosis inhibitory activity.
Turning to `Cc1cc(N2CC(F)(F)C2)ccc1Nc1ccc2c(c1)OCCC(=O)N2` [Compound 626, 8-((4-(3,3-difluoroazetidin-1-yl)-2-methylphenyl)amino)-2,3-dihydrobenzo[b][1,4]oxazepin-4(5H)-one], the concentration giving a half-maximal response (EC50) was 0.1 to 100 nM.

`Cc1cc(N2CCC(OC(F)(F)F)C2)ccc1Nc1ccc2c(c1)OCCC(=O)N2` (centres unmarked) [Compound 591, 8-((2-methyl-4-(3-(trifluoromethoxy)pyrrolidin-1-yl)phenyl)amino)-2,3-dihydrobenzo[b][1,4]oxazepin-4(5H)-one]: the EC50 is 0.1 to 100 nM.

Consider `CC1(O)CCN(c2ccc(Nc3ccc4c(c3)OCC(=O)N4)cc2)CC1` [Compound 540, 7-((4-(4-hydroxy-4-methylpiperidin-1-yl)phenyl)amino)-2H-benzo[b][1,4]oxazin-3(4H)-one], for which the 50% effective concentration (EC50) lay in the range of 100 to 1000 nM.

With `Cc1cc(N2CCC(C(F)(F)F)CC2)ccc1Nc1ccc2c(c1)CC(N)C(=O)N2` (centres unmarked) [Compound 598, 3-amino-6-((2-methyl-4-(4-(trifluoromethyl)piperidin-1-yl)phenyl)amino)-3,4-dihydroquinolin-2(1H)-one], the half-maximal effective concentration (EC50) is 0.1 to 100 nM.

Take `COc1cc(Nc2ccc(N3CCC(C(F)(F)F)CC3)cc2C)cc2c1N(C)C(=O)CO2` [Compound 565, 5-methoxy-4-methyl-7-((2-methyl-4-(4-(trifluoromethyl)piperidin-1-yl)phenyl)amino)-2H-benzo[b][1,4]oxazin-3(4H)-one]: the EC50 lay within 0.1 to 100 nM.

As to `O=C1COc2cc(Nc3ccc(N4CCC(C(F)(F)F)CC4)cc3Cl)ccc2N1` [Compound 448, 7-({2-chloro-4-[4-(trifluoromethyl)piperidin-1-yl]phenyl}amino)-2,4-dihydro-1,4-benzoxazin-3-one], the concentration giving a half-maximal response (EC50) lay within 0.1 to 100 nM.

As to `Cc1cc(N2CCC(OC(F)(F)F)C2)ccc1Nc1ccc2c(c1)OCC(=O)N2` (centres unmarked) [Compound 589, 7-((2-methyl-4-(3-(trifluoromethoxy)pyrrolidin-1-yl)phenyl)amino)-2H-benzo[b][1,4]oxazin-3(4H)-one], the EC50 was 0.1 to 100 nM.

As to `Cc1cc(N2CCC(C(F)(F)F)CC2)ccc1Nc1ccc2c(c1)OC(C)C(=O)N2` (centres unmarked) [Compound 482, 2-methyl-7-((2-methyl-4-(4-(trifluoromethyl)piperidin-1-yl)phenyl)amino)-2H-benzo[b][1,4]oxazin-3(4H)-one], the EC50 was 0.1 to 100 nM.

Take `Cc1cc(N2CCC(C(F)(F)F)C2)ccc1Nc1ccc2c(c1)OCC(N)C(=O)N2` (centres unmarked) [Compound 613, 3-amino-8-((2-methyl-4-(3-(trifluoromethyl)pyrrolidin-1-yl)phenyl)amino)-2,3-dihydrobenzo[b][1,4]oxazepin-4(5H)-one]: the half-maximal effective concentration (EC50) was in the range of 0.1 to 100 nM.

These data come from patent publication US20240327393A1 (SIRONAX LTD., priority 2021, published 2024).
